The results in this text go back to patent publication US9730944B2, “Antiviral activity of novel bicyclic heterocycles” (priority 2010, dated 2017).

As a reminder, the EC50 is the concentration needed to bring the measured effect to its halfway point.

In brackets after ≈: the same amount, converted by molar mass. Like-named read-outs stand apart in the source and are kept apart here.

The test system of data set [1] is poliovirus (PV type 1). The data set is described as follows: microbe, parasite or virus in culture. It counts as cell-based. The conditions noted are these: Enterovirus C, read-out: PV-1 EC50.
Data set [2] concerns poliovirus (PV type 3). The data set can be described thus: microbe, parasite or virus in culture. It counts as cell-based. The conditions noted are these: Enterovirus C, read-out: PV-3 EC50.
For data set [3], the system named is poliovirus (PV type 2). The data set can be described thus: microbe, parasite or virus in culture. Format: cell-based. The conditions noted are these: Enterovirus C, read-out: PV-2 EC50.
A short description of data set [4]: in vitro. The conditions noted are these: African green monkey, PV CC50.
Data set [5] is described as follows: in vitro. The conditions noted are these: human, PV CC50.
Data set [6] has as its system genotype 1a H-77 replicon. The data set is described as follows: HCV-1a replicon potency in RLuc-1 cells, bioluminescence. The conditions noted are these: for HCV-1a Replicon Selectivity Index: CC50/EC50, genotype 1a replicon; for EC50: Hepatitis C virus, 72 h, read-out: HCV-1a Replicon EC50 (μM). Format: cell-based.
Data set [7] is described as follows: Cytotoxicity in HCV-1a replicon cells, Promega CellTiter-Glo cell viability assay. For orientation: In antiviral work, replicon cells carry a viral genome segment that copies itself.

Regarding `CCCCCc1nc2c(N3CCN(C(=O)COc4ccc(Cl)cc4)CC3)nc(N)nc2o1` [Example 188, 5-amino-7-[4-(4-chlorophenoxyacetyl)piperazin-1-yl]-2-pentyloxazolo[5,4-d]pyrimidine], the EC50 came to 0.38 µg/mL (≈ 0.828 µM) in data set [1] (HeLa); 0.14 µg/mL (≈ 0.305 µM) in data set [1] (Vero); 0.48 µg/mL (≈ 1.05 µM) in data set [2] (HeLa); 0.32 µg/mL (≈ 0.697 µM) in data set [2] (Vero); 0.36 µg/mL (≈ 0.784 µM) in data set [3] (HeLa); 0.11 µg/mL (≈ 0.24 µM) in data set [3] (Vero). In addition, the results for the CC50 in data set [4] and in data set [5] were 103 µg/mL (≈ 225 µM) and over 50 µg/mL, respectively.

As to `Nc1nc(N2CCN(C(=O)COc3ccc(Cl)cc3)CC2)c2nc(CCc3ccccc3)sc2n1` [Example 118, 5-amino-7-[4-(4-chlorophenoxyacetyl)piperazin-1-yl]-2-(2-phenylethyl)thiazolo[5,4-d]pyrimidine], in data set [6], the “HCV-1a Replicon Selectivity Index” value was found to be 8.4 and the concentration giving a half-maximal response (EC50) was determined as 3.6 µM. In data set [7], the CC50 at 72 h is 30.3 µM.

In the case of `Nc1nc(N2CCN(C(=O)COc3ccc(Cl)cc3)CC2)c2nc(-c3cccnc3)sc2n1` [Example 121a, 5-amino-7-[4-(4-chlorophenoxyacetyl)piperazin-1-yl]-2-(pyridine-3-yl)thiazolo[5,4-d]pyrimidine], in data set [6], the “HCV-1a Replicon Selectivity Index” value is listed as over 888 and the EC50 turned out to be 0.05 µM. In data set [7], this compound had a CC50 at 72 h of over 44.4 µM.

For the compound `Nc1nc(N2CCN(C(=O)COc3ccc(Cl)cc3)CC2)c2nc(CCc3cccs3)sc2n1` [Example 154, 5-amino-2-(2-thiophen-2-ylethyl)-7-(4-[2-(4-chloro-phenoxy)acetyl]piperazin-1-yl)thiazolo[5,4-d]pyrimidine], the EC50 in data set [6] is over 44.4 µM. Also, in data set [7], the CC50 at 72 h was over 44.4 µM.

Turning to `Cc1cccc(NC(=O)N2CCN(c3nc(N)nc4sc(-c5ccccc5)cc34)CC2)c1` [Example 330, 4-(2-amino-6-phenylthieno[2,3-d]pyrimidin-4-yl)-N-m-tolylpiperazine-1-carboxamide], in data set [6], the “HCV-1a Replicon Selectivity Index” value is on record as 6.0 and the half-maximal effective concentration (EC50) is 7.2 µM. In data set [7], this compound yielded a CC50 at 72 h of 43.5 µM.

Regarding `Nc1nc(N2CCN(C(=O)COc3ccc(Cl)cc3)CC2)c2nc(C(c3ccc(F)cc3)C3CCCC3)sc2n1` (stereo not drawn) [Example 151, 5-amino-2-[cyclopentyl-(4-fluorophenyl)methyl]-7-(4-[2-(4-chlorophenoxy)acetyl]piperazin-1-yl)thiazolo[5,4-d]pyrimidine], in data set [6], the “HCV-1a Replicon Selectivity Index” value came to 2.1 and the 50% effective concentration (EC50) is 14.7 µM. The compound also registered a CC50 at 72 h in data set [7] of 31.2 µM.

Take `CC(C)(C)c1nc2c(N3CCN(C(=O)COc4ccc(Cl)cc4)CC3)nc(N)nc2[nH]1` [Example 399, 1-(4-(2-amino-8-tert-butyl-9H-purin-6-yl)piperazin-1-yl)-2-(4-chlorophenoxy)ethanone]: in data set [6], the “HCV-1a Replicon Selectivity Index” value stood at 1.2 and the EC50 is 24.7 µM. Moreover, in data set [7], the CC50 at 72 h is 29.1 µM.

For `Nc1nc(N2CCN(C(=O)Cc3cccs3)CC2)c2nc(-c3ccc(F)cc3)[nH]c2n1` [Example 403, 1-(4-(2-amino-8-(4-fluorophenyl)-9H-purin-6-yl)piperazin-1-yl)-2-(thiophen-2-yl)ethanone], in data set [6], the “HCV-1a Replicon Selectivity Index” value was 0.8 and the concentration giving a half-maximal response (EC50) stood at 11.3 µM. This compound returned a CC50 at 72 h in data set [7] of 9.6 µM.

`Nc1nc(N2CCN(C(=O)Nc3ccc(Cl)cc3)CC2)c2cc(-c3ccccc3)sc2n1` [Example 331, 4-(2-amino-6-phenylthieno[2,3-d]pyrimidin-4-yl)-N-(4-chlorophenyl)piperazine-1-carboxamide]: in data set [6], the “HCV-1a Replicon Selectivity Index” value is 1.8 and the EC50 was 18.7 µM. Further, the CC50 at 72 h in data set [7] came out at 34.3 µM.

In the case of `Cc1cccc(NC(=O)N2CCN(c3nc(N)nc4oc(CCc5ccc(F)cc5)nc34)CC2)c1` [Example 196, 5-amino-2-[2-(4-fluorophenyl)ethyl]-7-(4-m-tolylcarbamoylpiperazin-1-yl)-oxazolo[5,4-d]pyrimidine], in data set [6], the “HCV-1a Replicon Selectivity Index” value is reported as 1.6 and the half-maximal effective concentration (EC50) is 15.6 µM. The compound also came in with a CC50 at 72 h in data set [7] of 24.5 µM.

With `Nc1nc(N2CCN(c3ccc(Cl)cc3)CC2)c2nc(-c3ccc(F)cc3)[nH]c2n1` [Example 414, 6-(4-(4-chlorophenyl)piperazin-1-yl)-8-(4-fluorophenyl)-9H-purin-2-amine], in data set [6], the “HCV-1a Replicon Selectivity Index” value was found to be 1.2 and the EC50 is 7.3 µM. Also, the CC50 at 72 h in data set [7] amounted to 8.7 µM.

With `Nc1nc(N2CCN(C(=O)COc3ccc(Cl)cc3)CC2)c2nc(C3(c4ccc(Cl)cc4)CC3)sc2n1` [Example 117, 5-amino-7-[4-(4-chlorophenoxyacetyl)piperazin-1-yl]-2-(1-(4-chlorophenyl)cyclopropyl)thiazolo[5,4-d]pyrimidine], in data set [6], the “HCV-1a Replicon Selectivity Index” value worked out at 1.3 and the EC50 was 17.7 µM. The compound further gave a CC50 at 72 h in data set [7] of 23.3 µM.

As for `Nc1nc(N2CCN(C(=O)CCc3ccccc3)CC2)c2nc(-c3ccc(F)cc3)[nH]c2n1` [Example 438, 1-(4-(2-amino-8-(4-fluorophenyl)-9H-purin-6-yl)piperazin-1-yl)-3-phenylpropan-1-one], in data set [6], the “HCV-1a Replicon Selectivity Index” value is 0.6 and the EC50 came out at 10.3 µM. Besides, the CC50 at 72 h in data set [7] is 6.1 µM.

Take `CC(=O)N1CCN(c2nc(N)nc3[nH]c(-c4ccc(F)cc4)nc23)CC1` [Example 408, 1-(4-(2-amino-8-(4-fluorophenyl)-9H-purin-6-yl)piperazin-1-yl)ethanone]: the EC50 in data set [6] is over 44.4 µM. Also, the CC50 at 72 h in data set [7] was over 44.4 µM.

On to `Nc1nc(N2CCN(S(=O)(=O)Cc3ccccc3)CC2)c2nc(CCc3ccc(F)cc3)sc2n1` [Example 137, 5-amino-2-[2-(4-fluorophenyl)ethyl]-7-[4-phenylmethanesulfonylpiperazin-1-yl]-thiazolo[5,4-d]pyrimidine], for which, in data set [6], the “HCV-1a Replicon Selectivity Index” value came out at 0.8 and the EC50 is 26.9 µM. The compound also showed a CC50 at 72 h in data set [7] of 21.8 µM.

In the case of `CCC(c1ccc(F)cc1)c1nc2c(N3CCN(C(=O)COc4ccc(Cl)cc4)CC3)nc(N)nc2s1` (stereo not drawn) [Example 150, 5-amino-2-[1-(4-fluorophenyl)propyl]-7-(4-[2-(4-chlorophenoxy)acetyl]piperazin-1-yl)thiazolo[5,4-d]pyrimidine], in data set [6], the “HCV-1a Replicon Selectivity Index” value came out at 2.0 and the EC50 was found to be 13.1 µM. The compound also showed a CC50 at 72 h in data set [7] of 25.9 µM.

As to `Nc1nc(N2CCN(C(=O)COc3ccc(Cl)cc3)CC2)c2nc(-c3ccc(OC(F)(F)F)cc3)[nH]c2n1` [Example 395, 1-(4-(2-amino-8-(4-(trifluoromethoxy)phenyl)-9H-purin-6-yl)piperazin-1-yl)-2-(4-chlorophenoxy)ethanone], in data set [6], the “HCV-1a Replicon Selectivity Index” value is 1.1 and the EC50 was determined as 9.9 µM. Further, the CC50 at 72 h in data set [7] is 10.7 µM.

Regarding `CC(c1ccc(Cl)cc1)c1nc2c(N3CCN(C(=O)COc4ccc(Cl)cc4)CC3)nc(N)nc2s1` (stereo not drawn) [Example 125, 5-amino-7-[4-(4-chlorophenoxyacetyl)piperazin-1-yl]-2-(1-(4-chlorophenyl)ethyl)thiazolo[5,4-d]pyrimidine], in data set [6], the “HCV-1a Replicon Selectivity Index” value came to 1.1 and the EC50 amounted to 22.6 µM. Moreover, the CC50 at 72 h in data set [7] turned out to be 24.4 µM.

For the compound `Nc1nc(N2CCCN(C(=O)COc3ccc(Cl)cc3)CC2)c2nc(-c3ccc(F)cc3)[nH]c2n1` [Example 421, 1-(4-(2-amino-8-(4-fluorophenyl)-9H-purin-6-yl)-1,4-diazepan-1-yl)-2-(4-chlorophenoxy)ethanone], in data set [6], the “HCV-1a Replicon Selectivity Index” value worked out at 1.9 and the EC50 was determined as 12.7 µM. The CC50 at 72 h in data set [7] was found to be 23.8 µM.

`COc1ccc(-c2nc3c(N4CCN(C(=O)COc5ccc(Cl)cc5)CC4)nc(N)nc3[nH]2)cc1OC` [Example 390, 1-(4-(2-amino-8-(3,4-dimethoxyphenyl)-9H-purin-6-yl)piperazin-1-yl)-2-(4-chlorophenoxy)ethanone]: in data set [6], the “HCV-1a Replicon Selectivity Index” value is on record as 9.9 and the half-maximal effective concentration (EC50) was determined as 1.7 µM. In data set [7], this compound showed a CC50 at 72 h of 17.3 µM.

For the compound `Nc1nc(N2CCN(C(=O)COc3ccc(Cl)cc3)CC2)c2nc(Cc3ccc(Cl)cc3)sc2n1` [Example 122, 5-amino-7-[4-(4-chlorophenoxyacetyl)piperazin-1-yl]-2-(4-chlorophenylmethyl)thiazolo[5,4-d]pyrimidine], in data set [6], the “HCV-1a Replicon Selectivity Index” value worked out at 5.8 and the 50% effective concentration (EC50) amounted to 4.7 µM. Also, the CC50 at 72 h in data set [7] was 26.8 µM.

As for `Nc1nc(N2CCN(CC(=O)Nc3cccnc3)CC2)c2nc(-c3ccc(F)cc3)[nH]c2n1` [Example 412, 2-(4-(2-amino-8-(4-fluorophenyl)-9H-purin-6-yl)piperazin-1-yl)-N-(pyridin-3-yl)acetamide], in data set [6], the “HCV-1a Replicon Selectivity Index” value is recorded as over 111 and the 50% effective concentration (EC50) amounted to 0.4 µM. The same compound returned a CC50 at 72 h in data set [7] of over 44.4 µM.

Turning to `CCCSc1nc2c(N3CCN(C(=O)COc4ccc(Cl)cc4)CC3)nc(N)nc2[nH]1` [Example 425, 1-(4-(2-amino-8-(propylthio)-9H-purin-6-yl)piperazin-1-yl)-2-(4-chlorophenoxy)ethanone], in data set [6], the “HCV-1a Replicon Selectivity Index” value came to 19.7 and the concentration giving a half-maximal response (EC50) came out at 1.2 µM. In addition, the CC50 at 72 h in data set [7] worked out at 23.6 µM.

In the case of `Nc1nc(N2CCN(C(=O)c3ccc(Cl)cc3)CC2)c2nc(CCc3cccs3)sc2n1` [Example 156, 5-amino-2-(2-thiophen-2-ylethyl)-7-(4-(4-chloro-benzoyl)piperazin-1-yl)thiazolo[5,4-d]pyrimidine], in data set [6], the “HCV-1a Replicon Selectivity Index” value was 1.5 and the EC50 amounted to 20.7 µM. Besides, the CC50 at 72 h in data set [7] was 30.7 µM.
